Earlier results on two compounds are cited in patent US20050095265A1, “Process for making larvicidal evaporation suppressant powder” (priority 2002, published 2005).

On to `CCCCCCCCCCCCCCCCO` [cetyl alcohol, n-hexadecanol], for which the “influence on aquatic larvae” value with Anopheles gambiae is recorded as “no appreciable influence”. Moreover, the larvicidal effect entry with Culex quinquefasciatus (film-forming compound on water surface, Culex quinquefasciatus larvae) is “no larvicidal effect”. In addition, in the data set on Culex quinquefasciatus (particles on water surface of test units, apparently fed upon by mosquito larvae), the “effect on larvae of feeding on particles floating on the water surface” value is listed as “no ill effect”.

Consider `CCCCCCCCCCCCO` [lauryl alcohol, dodecanol], for which the mosquito larvae mortality entry with Culex quinquefasciatus (as reported by Lorenzen and Meinke) is on record as “cause mosquito larvae mortality”.
